Data set [1] deals with T1, BTK (Homo sapiens, UniProt Q06187). In words: Cellular BTK degradation assay (Total BTK HTRF) in TMD8 cells. In kind it is cell-based. Also noted: endogenous in cells; host or cells: TMD8. Conditions: treatment time 24 h. As for the experimental part:
Cellular BTK Degradation Assay
In Vitro Cellular Screening to Determine Potency as Measured by DC50 Values after Four Hour Incubation
(§1) BTK levels were determined using Cisbio Total-BTK HTRF (Homologous Time-Resolved Fluorescence) kit (63ADK064PEG) according to the manufacturer's protocol. Briefly, cells were incubated in 1× supplied lysis buffer for 30 minutes. In an opaque white low volume 96-well plate (Cisbio, 66PL96005), cell lysate was combined with two different specific BTK antibodies, one conjugated with Eu^3+-Cryptate FRET donor and one conjugated with d2 FRET acceptor. Assay controls include wells containing cell lysate with only the Eu^3+-Cryptate FRET donor antibody and wells containing both HTRF antibodies and lysis buffer without cells or control lysate provided by Cisbio. HTRF ratio was calculated as (acceptor signal at 665 nm/donor signal at 620 nm)×10^4. Background HTRF levels were determined from the control well containing the donor, but no acceptor, antibody. Background HTRF levels were subtracted from all samples. Readouts were reported as HTRF levels relative to HTRF levels of DMSO-treated cells. Four-parameter non-linear regressions were performed in GraphPad Prism 7.02 to obtain DC50 values.
Cellular BTK degradation was measured as above for four hours in TMD8 cells for two diastereomers of compound 130. DC50 and EC50 values are the concentration at which the response is halfway between the top and bottom of the fitted non-linear regression curve.
The present example evaluates whether potency of BTK CTMs shifts with longer timepoints. DC50 values are typically calculated with a 4-hour timepoint.

For another data set, the target named is T2, ITK (Homo sapiens, UniProt Q08881).
T2 construct: endogenous in cells; host or cells: MOLT4, TMD8
T2 sequence (Q08881 1-620): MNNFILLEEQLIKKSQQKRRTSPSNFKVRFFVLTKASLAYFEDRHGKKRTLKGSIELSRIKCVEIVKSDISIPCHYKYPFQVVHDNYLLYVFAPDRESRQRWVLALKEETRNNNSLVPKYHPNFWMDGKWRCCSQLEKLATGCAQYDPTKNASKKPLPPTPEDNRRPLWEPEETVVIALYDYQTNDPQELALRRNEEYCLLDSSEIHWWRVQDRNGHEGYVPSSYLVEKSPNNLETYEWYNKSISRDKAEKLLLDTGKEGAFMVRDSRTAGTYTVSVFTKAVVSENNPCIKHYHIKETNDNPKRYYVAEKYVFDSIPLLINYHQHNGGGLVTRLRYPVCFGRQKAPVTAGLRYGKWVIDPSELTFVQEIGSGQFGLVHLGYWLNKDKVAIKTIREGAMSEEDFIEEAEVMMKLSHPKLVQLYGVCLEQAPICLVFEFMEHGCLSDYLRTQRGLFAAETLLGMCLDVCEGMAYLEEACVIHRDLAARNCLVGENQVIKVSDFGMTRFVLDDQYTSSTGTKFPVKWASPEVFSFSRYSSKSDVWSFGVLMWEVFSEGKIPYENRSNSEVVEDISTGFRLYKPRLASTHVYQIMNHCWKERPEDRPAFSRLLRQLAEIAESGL
In words: ITK levels in MOLT4 and TMD8 cells (FIGS. 10-12). In kind it is cell-based. The source says: FIGS. 10A and 10B provide effects of compounds 73, 72, 121, and 44, and control compounds, on neo-substrate and ITK or BTK levels after twenty-four hours in MOLT4 cells (FIG. 10A) and TMD8 cells (FIG. 10B).
FIGS. 11A and 11B provide effects of compounds 44, 72, and 149, and control compounds, on CRBN neo-substrate and ITK levels in MOLT4 cells (FIG. 11A) and TMD8 cells (FIG. 11B).
FIG. 12 provides effects of compounds 130, 149, and 44 on ITK levels and IMiD activity.

In data set [2] the target is T1, BTK. In words: BTK degradation (Total BTK HTRF) in Mino cells (Mantle Cell Lymphoma model). In kind it is cell-based. Also noted: endogenous in cells; host or cells: TMD8, Mino, Rec-1. Conditions: treatment time 4 h. Here is the method: as §1
BTK Degradation (Total BTK HTRF) at Four Hours in Mino Cells
This example evaluates the potency of CTMs in a model of Mantle Cell Lymphoma (MCL). To evaluate potential therapeutic indications, BTK CTMs were assayed in models of Mantle Cell Lymphoma as with the TMD8 cells (ABC-DLBCL) above. Tested CTMs had similar potencies for BTK degradation in the MCL cell lines (Mino and Rec-1) and TMD8 cells.

In data set [3] the test system is Aiolos. In words: Non-human primate (cyno) DRF PD, Aiolos remaining in T cells. In kind it is in vivo. Conditions: blood, 24 h after previous dose. Here is the method:
This example evaluates potency and tolerability of BTK CTMs following multiple, consecutive days of dosing and examines potency of compounds for BTK and Aiolos degradation. The data in the table below is from a study in which animals were dosed daily with the designated oral dose. Analysis for BTK and Aiolos levels was performed twenty-four hours following the previous dose.

Data set [4] is described as follows: PK data for BTK CTMs (in vivo plasma concentrations). Conditions: for Vd: read-out: Volume of Distribution. The source says: The present example evaluates in vivo plasma concentrations of BTK CTMs to develop PK-PD-efficacy relationship and predict human exposure.
Data set [5] addresses T3, Aiolos (Homo sapiens, UniProt Q96SW2+Q9UKT9).
T3 construct: endogenous in cells; host or cells: Mino, Rec-1
In words: Aiolos degradation in Mantle Cell Lymphoma lines (flow cytometry). It counts as cell-based. Conditions: for DC50: treatment time 24 h. The source says: Ikaros and Aiolos Degradation in Mantle Cell Lymphoma Lines (Ikaros and Aiolos Flow Cytometry)
This example evaluates the IMiD activity of CTMs in cellular models of Mantle Cell Lymphoma (MCL). […] These assays are to determine potency of CTMs for degrading IMiD neo-substrates in cellular models of MCL and to generate data to inform efficacy studies in MCL xenografts.

Where [6] appears, read: after twenty-four hours, TMD8 and/or MOLT4 cells, FIGS. 10A and 10B.
[7] abbreviates: 10 mg/kg PO daily, 1 day of dosing.
Setting [8] is: 10 mg/kg PO daily, 14 days of dosing.
Setting [9] is: 30 mg/kg PO daily, 1 day of dosing.
Where [10] appears, read: 30 mg/kg PO daily, 14 days of dosing.
[11] abbreviates: 100 mg/kg PO daily, 1 day of dosing.
[12] abbreviates: 100 mg/kg PO daily, 14 days of dosing.
The mark [13] stands for this setting: Rat Sprague-Dawley, 10 mg/kg PO.
Setting [14] is: Rat Sprague-Dawley, 30 mg/kg PO.
[15] abbreviates: Monkey cynomolgus, 0.75 mg/kg IV.

SMILES strings stand for the structures. Read-outs that look alike come from different tables or passages of the source.

T3 sequence (Q9UKT9 whole entry): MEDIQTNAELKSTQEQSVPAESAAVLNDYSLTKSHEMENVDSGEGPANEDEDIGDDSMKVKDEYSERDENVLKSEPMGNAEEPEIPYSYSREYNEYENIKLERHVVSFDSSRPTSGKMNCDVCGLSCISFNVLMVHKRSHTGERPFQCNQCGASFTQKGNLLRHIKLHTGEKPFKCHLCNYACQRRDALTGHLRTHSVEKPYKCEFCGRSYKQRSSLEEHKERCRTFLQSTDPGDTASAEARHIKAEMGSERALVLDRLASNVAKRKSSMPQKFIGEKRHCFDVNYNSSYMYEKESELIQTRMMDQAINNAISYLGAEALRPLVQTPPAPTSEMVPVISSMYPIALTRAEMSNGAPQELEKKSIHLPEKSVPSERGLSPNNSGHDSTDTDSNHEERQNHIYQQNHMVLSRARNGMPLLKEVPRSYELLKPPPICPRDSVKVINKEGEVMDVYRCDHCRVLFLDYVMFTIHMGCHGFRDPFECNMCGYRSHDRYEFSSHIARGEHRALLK
T3 sequence (Q96SW2 whole entry): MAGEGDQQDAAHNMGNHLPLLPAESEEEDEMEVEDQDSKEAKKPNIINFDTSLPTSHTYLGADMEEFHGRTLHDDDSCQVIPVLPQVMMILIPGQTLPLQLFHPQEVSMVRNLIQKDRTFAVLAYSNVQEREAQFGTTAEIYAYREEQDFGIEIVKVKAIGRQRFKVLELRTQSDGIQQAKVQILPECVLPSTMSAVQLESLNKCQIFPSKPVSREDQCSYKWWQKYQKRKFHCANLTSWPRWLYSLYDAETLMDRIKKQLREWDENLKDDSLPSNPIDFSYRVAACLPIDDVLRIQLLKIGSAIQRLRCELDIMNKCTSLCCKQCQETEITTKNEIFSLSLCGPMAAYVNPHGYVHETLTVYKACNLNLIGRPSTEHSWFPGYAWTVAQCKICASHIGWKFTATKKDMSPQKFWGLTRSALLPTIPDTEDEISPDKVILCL
T3 sequence (Q16531 whole entry partner): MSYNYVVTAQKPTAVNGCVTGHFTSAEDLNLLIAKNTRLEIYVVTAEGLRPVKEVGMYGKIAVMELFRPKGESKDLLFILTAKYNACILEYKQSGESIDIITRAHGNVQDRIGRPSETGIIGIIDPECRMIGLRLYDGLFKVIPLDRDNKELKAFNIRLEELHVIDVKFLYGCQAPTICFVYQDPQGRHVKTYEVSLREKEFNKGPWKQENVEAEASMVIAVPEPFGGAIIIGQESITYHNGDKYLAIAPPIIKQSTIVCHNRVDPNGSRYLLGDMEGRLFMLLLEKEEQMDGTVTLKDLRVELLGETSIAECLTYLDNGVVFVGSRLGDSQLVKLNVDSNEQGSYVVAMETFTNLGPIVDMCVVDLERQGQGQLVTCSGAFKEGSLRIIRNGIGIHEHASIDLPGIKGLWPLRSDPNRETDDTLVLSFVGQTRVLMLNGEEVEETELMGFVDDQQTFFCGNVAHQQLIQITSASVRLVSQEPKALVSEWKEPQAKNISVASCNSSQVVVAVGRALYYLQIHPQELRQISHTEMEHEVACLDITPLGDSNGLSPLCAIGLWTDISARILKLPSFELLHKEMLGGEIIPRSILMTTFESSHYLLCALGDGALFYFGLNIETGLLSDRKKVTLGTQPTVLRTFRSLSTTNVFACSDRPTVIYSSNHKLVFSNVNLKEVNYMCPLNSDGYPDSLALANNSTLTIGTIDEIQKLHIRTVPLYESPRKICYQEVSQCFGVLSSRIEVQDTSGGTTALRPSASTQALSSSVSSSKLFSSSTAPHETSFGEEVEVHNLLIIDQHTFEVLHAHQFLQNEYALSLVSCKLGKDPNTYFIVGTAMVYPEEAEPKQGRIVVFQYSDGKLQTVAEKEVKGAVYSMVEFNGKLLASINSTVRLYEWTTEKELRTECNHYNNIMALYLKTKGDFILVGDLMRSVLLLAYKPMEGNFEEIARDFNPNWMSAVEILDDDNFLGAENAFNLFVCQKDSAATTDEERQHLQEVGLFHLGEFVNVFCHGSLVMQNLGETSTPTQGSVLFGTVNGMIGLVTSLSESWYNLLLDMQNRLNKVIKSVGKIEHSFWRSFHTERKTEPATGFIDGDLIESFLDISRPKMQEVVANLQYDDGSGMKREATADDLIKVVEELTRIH
T1 sequence (Q06187 whole entry): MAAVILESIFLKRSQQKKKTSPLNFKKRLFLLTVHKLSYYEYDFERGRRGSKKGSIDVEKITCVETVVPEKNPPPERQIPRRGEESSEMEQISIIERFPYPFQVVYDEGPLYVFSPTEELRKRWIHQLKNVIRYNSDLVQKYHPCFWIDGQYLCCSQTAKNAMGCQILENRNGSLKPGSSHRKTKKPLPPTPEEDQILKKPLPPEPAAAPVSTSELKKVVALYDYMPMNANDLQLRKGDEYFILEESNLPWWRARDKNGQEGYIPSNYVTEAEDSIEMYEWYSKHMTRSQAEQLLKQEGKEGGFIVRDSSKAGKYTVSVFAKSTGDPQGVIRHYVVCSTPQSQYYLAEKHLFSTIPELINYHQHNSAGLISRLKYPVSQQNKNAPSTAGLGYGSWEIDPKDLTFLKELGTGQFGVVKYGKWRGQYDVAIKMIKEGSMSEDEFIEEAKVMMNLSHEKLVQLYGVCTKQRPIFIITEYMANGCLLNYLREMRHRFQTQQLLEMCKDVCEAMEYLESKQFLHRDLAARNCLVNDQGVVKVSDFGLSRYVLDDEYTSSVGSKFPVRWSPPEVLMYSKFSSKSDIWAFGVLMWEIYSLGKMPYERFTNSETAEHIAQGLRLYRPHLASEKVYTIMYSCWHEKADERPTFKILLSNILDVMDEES

Consider `CN1CCN([C@@H]2CCCN(c3cnc(C(N)=O)c(Nc4ccc(C5CCN(C[C@H]6CCN(c7ccc8c(c7)C(=O)N(C7CCC(=O)NC7=O)C8=O)C6)CC5)cc4)n3)C2)C1=O` (stereo partly shown) [Compound 44], for which the DC50 at BTK [1] was found to be 0.36 nM; on BTK [2], 0.56 nM; at Aiolos [5] (Mino cells), 100 nM; on Aiolos [5] (Rec-1 cells) it was 70 nM. In addition, the “effect on ITK levels in cells” value on ITK (MOLT4 and TMD8 cells, FIGS. 11A and 11B) is on record as “some effect”. At ITK (setting [6]), the “effects on ITK levels” value is “some effects”. The “% Aiolos Remaining in T cells” value was 96% with Aiolos [3] (setting [7]); 71% in the data set on Aiolos [3] (setting [8]); 99% in the data set with Aiolos [3] (setting [9]); 69% in the data set with Aiolos [3] (setting [10]); 96% in the data set on Aiolos [3] (setting [11]); 63% in the data set on Aiolos [3] (setting [12]). Further, the area under the curve (AUC) was determined as 4.07 µM·h in data set [4] (Mouse Balb/c, 1 mg/kg IV) and 4 µM·h in data set [4] (Mouse Balb/c, 10 mg/kg PO). The compound also had a clearance in data set [4] (Mouse Balb/c, 1 mg/kg IV) of 5.1 mL/min/kg. Besides, the Vd in data set [4] (Mouse Balb/c, 1 mg/kg IV) was 0.69 L/kg. This compound also yielded a bioavailability in data set [4] (Mouse Balb/c, 10 mg/kg PO) of 10%.
With `CN1CCN([C@@H]2CCCN(c3cnc(C(N)=O)c(Nc4ccc(C5CCN(CC6CCN(c7ccc8c(=O)n(C9CCC(=O)NC9=O)ccc8c7)CC6)CC5)cc4)n3)C2)C1=O` (stereo partly shown) [Compound 72], at BTK [1], the DC50 turned out to be 0.21 nM. Moreover, the “effects on ITK levels” value at ITK (FIG. 12) was “slight effects”. Also, the “effects on ITK levels” value at ITK (setting [6]) was “does affect”. Further, in data set [4] (Mouse Balb/c, 1 mg/kg IV), the AUC is 3.96 µM·h, the clearance was 5.1 mL/min/kg and the Vd came to 0.68 L/kg. In data set [4] (Mouse Balb/c, 10 mg/kg PO), this compound showed an AUC of 2.9 µM·h and a bioavailability of 7%.
With `CN1CCN([C@@H]2CCCN(c3cnc(C(N)=O)c(Nc4ccc(C5CCN(CC6CCN(c7ccc(-c8nn(C9CCC(=O)NC9=O)c(=O)n8C)cc7)CC6)CC5)cc4)n3)C2)C1=O` (stereo partly shown) [Compound 121], the half-maximal degradation concentration (DC50) at BTK [1] turned out to be 1 nM. Further, the “effects on ITK levels” value at ITK (setting [6]) is “minimal effects”. Moreover, the AUC in data set [4] (Mouse Balb/c, 1 mg/kg IV) was determined as 2.87 µM·h; in data set [4] (Mouse Balb/c, 30 mg/kg PO), 2.22 µM·h; in data set [4] (Rat Sprague-Dawley, 1 mg/kg IV), 0.919 µM·h; in data set [4] (setting [13]) it was 0.083 µM·h; in data set [4] (setting [14]), 0.73 µM·h. The clearance was 6.6 mL/min/kg in data set [4] (Mouse Balb/c, 1 mg/kg IV) and 20 mL/min/kg in data set [4] (Rat Sprague-Dawley, 1 mg/kg IV). In addition, the Vd amounted to 0.77 L/kg in data set [4] (Mouse Balb/c, 1 mg/kg IV) and 3.12 L/kg in data set [4] (Rat Sprague-Dawley, 1 mg/kg IV). Besides, the bioavailability in data set [4] (Mouse Balb/c, 30 mg/kg PO) came out at 11%; in data set [4] (setting [13]), 1%.
Regarding `CN1CCN([C@H]2CCCN(c3cnc(C(N)=O)c(Nc4ccc(C5CCN(CC6CCN(c7ccc(C(=O)NC8CCC(=O)NC8=O)nc7)CC6)CC5)cc4)n3)C2)C1=O` (stereo partly shown) [Compound 130], the “effects on ITK levels” value at ITK (FIG. 12) was “slight effects”. Moreover, the DC50 on BTK [2] was 0.58 nM; on Aiolos [5] (Mino cells) it was over 2000 nM; on Aiolos [5] (Rec-1 cells), over 2000 nM. The “% Aiolos Remaining in T cells” value was 102% with Aiolos [3] (setting [7]); 96% with Aiolos [3] (setting [8]); 98% in the data set with Aiolos [3] (setting [9]); 108% with Aiolos [3] (setting [10]); 106% with Aiolos [3] (setting [11]); 99% with Aiolos [3] (setting [12]). The area under the curve (AUC) turned out to be 0.16 µM·h in data set [4] (Dog Beagle, 1 mg/kg IV); 0.17 µM·h in data set [4] (Dog Beagle, 10 mg/kg PO); 0.23 µM·h in data set [4] (Dog Beagle, 30 mg/kg PO); 0.17 µM·h in data set [4] (setting [15]); 0.028 µM·h in data set [4] (Monkey cynomolgus, 10 mg/kg PO); 0.45 µM·h in data set [4] (Monkey cynomolgus, 30 mg/kg PO). Also, the AUC in data set [4] (Mouse Balb/c, 1 mg/kg IV) amounted to 3.4 µM·h; in data set [4] (Mouse Balb/c, 10 mg/kg PO), 5.81 µM·h; in data set [4] (Mouse Balb/c, 30 mg/kg PO) it was 2.3 µM·h; in data set [4] (Mouse CD-1, 1 mg/kg IV), 1.7 µM·h; in data set [4] (Mouse CD-1, 10 mg/kg PO), 5.2 µM·h; in data set [4] (Rat Sprague-Dawley, 1 mg/kg IV), 0.18 µM·h. The figures for the AUC in data set [4] (setting [13]) and in data set [4] (setting [14]) were 0.69 µM·h and 1.62 µM·h, respectively. The clearance turned out to be 118 mL/min/kg in data set [4] (Dog Beagle, 1 mg/kg IV); 90.9 mL/min/kg in data set [4] (setting [15]); 6 mL/min/kg in data set [4] (Mouse Balb/c, 1 mg/kg IV); 11.6 mL/min/kg in data set [4] (Mouse CD-1, 1 mg/kg IV); 99.5 mL/min/kg in data set [4] (Rat Sprague-Dawley, 1 mg/kg IV). Besides, the Vd in data set [4] (Dog Beagle, 1 mg/kg IV) was 56 L/kg; in data set [4] (setting [15]), 16 L/kg; in data set [4] (Mouse Balb/c, 1 mg/kg IV), 0.72 L/kg; in data set [4] (Mouse CD-1, 1 mg/kg IV), 1.4 L/kg; in data set [4] (Rat Sprague-Dawley, 1 mg/kg IV), 32 L/kg. The bioavailability in data set [4] (Dog Beagle, 10 mg/kg PO) was 10%; in data set [4] (Monkey cynomolgus, 10 mg/kg PO), 1%; in data set [4] (Mouse Balb/c, 10 mg/kg PO), 17%; in data set [4] (Mouse CD-1, 10 mg/kg PO) it was 33%; in data set [4] (setting [13]), 32%; in data set [4] (setting [14]) it was 7%. In addition, the “IMiD activity (degradation of IMiD neo-substrates Ikaros and Aiolos)” value on Aiolos [5] (Mantle Cell Lymphoma lines Mino and Rec-1) is recorded as “not others”.

The values above are taken from patent US12600732B2, “Bifunctional compounds for degrading BTK via ubiquitin proteosome pathway” (NURIX THERAPEUTICS, INC., priority 2019, dated 2026).
